Among the test systems are ACHN; BT-549; DMS-114; EKVX; HCT-116; HCT-15; HOP-62; HOP-92; M14; NCI-H23; NCI-H522; NCI/ADR-RES; OVCAR-8; SF-268; SF-539; SK-MEL-28; SN12C; SNB-19; SNB-75; SW-620.
Holding throughout (test): growth of human tumour cells (NCI), 48 h

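Dose response: 5 concentrations. Exposure: 48 h. Format: 96-well plates. Endpoint: linear interpolation; highest concentration if not reached. GI50 is the concentration that inhibits growth by half.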 The source made the active and inactive calls. Cut-off read from the data, not from the text of the source: active = GI50 up to about 1.1 µM and inactive = higher.

As to `COc1ccc(/C=C2\C(=O)NC(=O)c3ccccc32)cc1OC`, the GI50 in the experiment with ACHN was 32200 nM (inactive); in the experiment with BT-549, > 100000 nM (inactive); with DMS-114, 5000 nM (inactive); with EKVX it was 31600 nM (inactive); in the experiment with HCT-116 it was 6780 nM (inactive); in the experiment on HCT-15 it was 20500 nM. For the same compound, the GI50 was 32500 nM (inactive) with HOP-62; 7960 nM (inactive) with HOP-92; 57500 nM (inactive) with M14; 49800 nM (inactive) in the experiment on NCI-H23; 16200 nM (inactive) in the experiment on NCI-H522; 42200 nM (inactive) in the experiment with NCI/ADR-RES. Besides, the GI50 in the experiment with OVCAR-8 was 10100 nM (inactive); in the experiment with SF-268, 18200 nM (inactive); with SF-539, 9120 nM (inactive); with SK-MEL-28 it was > 77300 nM (inactive); with SN12C, 42300 nM (inactive); in the experiment on SNB-19, 25500 nM (inactive). The GI50 with SNB-75 was 37400 nM (inactive); in the experiment with SW-620 it was 16600 nM (inactive).
As for `COc1c(O)c(O)cc2c1-c1ccc(OC)c(=O)cc1C(NC(C)=O)CC2` (centres undefined), the GI50 in the experiment on ACHN is 37500 nM (inactive); with BT-549, 2220 nM (inactive); in the experiment on DMS-114, 2490 nM (inactive); in the experiment on EKVX, 25500 nM (inactive); in the experiment with HCT-116, 3940 nM (inactive); with HCT-15, 30600 nM. The GI50 with HOP-62 was 7600 nM (inactive); in the experiment with HOP-92 it was 2700 nM (inactive); in the experiment on M14, 3780 nM (inactive); in the experiment on NCI-H23 it was 3950 nM (inactive); with NCI-H522, 1840 nM (inactive); with NCI/ADR-RES, 29000 nM (inactive). Moreover, the GI50 with OVCAR-8 is 7550 nM (inactive); with SF-268, 5520 nM (inactive); in the experiment with SF-539, 2810 nM (inactive); in the experiment on SK-MEL-28 it was 8070 nM (inactive); in the experiment with SN12C it was 8950 nM (inactive); in the experiment on SNB-19 it was 5510 nM (inactive). Moreover, the GI50 in the experiment with SNB-75 is 4240 nM (inactive); with SW-620, 4410 nM (inactive).
`O=[N+]([O-])c1cccc2nc3ccccc3c(NCCO)c12`: the GI50 is 1.51 nM (active) with ACHN; 5.14 nM (active) in the experiment with BT-549; 3.16 nM (active) in the experiment with DMS-114; 1.11 nM (active) in the experiment on EKVX; 2.02 nM (active) in the experiment on HCT-116; 1.33 nM with HCT-15. In addition, the GI50 is 0.539 nM (active) in the experiment on HOP-62; 1.6 nM (active) in the experiment on HOP-92; 0.243 nM (active) in the experiment on M14; 1.94 nM (active) in the experiment with NCI-H23; 2.48 nM (active) in the experiment on NCI-H522; 5.66 nM (active) with NCI/ADR-RES. For the same compound, the GI50 in the experiment with SF-268 was 3.26 nM (active); in the experiment with SF-539, 2.62 nM (active); with SK-MEL-28 it was 2.17 nM (active); with SN12C, 1.97 nM (active); in the experiment with SNB-19, 9.77 nM (active); in the experiment on SNB-75, 1.64 nM (active). Also, the GI50 with SW-620 is 1.18 nM (active).
Regarding `CCNCC(=O)O[C@]1(CC)C(=O)OCc2c1cc1n(c2=O)Cc2cc3ccccc3nc2-1`, the GI50 is 44.1 nM (active) in the experiment with ACHN; 1050 nM (active) in the experiment on BT-549; 85.7 nM (active) in the experiment with DMS-114; 2440 nM (inactive) with EKVX; 342 nM (active) with HCT-116; 1850 nM in the experiment on HCT-15. In addition, the GI50 with HOP-62 is 27.5 nM (active); with HOP-92, 1160 nM (inactive); in the experiment with M14, 163 nM (active); in the experiment on NCI-H23, 84.9 nM (active); in the experiment on NCI-H522, 221 nM (active); in the experiment with NCI/ADR-RES, 114 nM (active). For the same compound, the GI50 in the experiment on OVCAR-8 was 270 nM (active); in the experiment on SF-268, 76.7 nM (active); in the experiment on SF-539, 46.6 nM (active); in the experiment with SK-MEL-28, 3560 nM (inactive); with SN12C, 61.9 nM (active); with SNB-19, 108 nM (active). Moreover, the GI50 was 284 nM (active) in the experiment on SNB-75 and 434 nM (active) with SW-620.
